In US7807400B2, “Methods for identifying chemical modulators of Ras superfamily GTPase activity” (The University of North Carolina at Chapel Hill, priority 2004, dated 2010):
“Also recorded” adds a separate entry of the source.

What was measured:
Format in all cases: biochemical
[1] = biological target: Dbs-mediated activation of RhoA (Homo sapiens, UniProt P61586); assay: fluorescence guanine nucleotide exchange reaction, Dbs-mediated activation of RhoA; settings: fluorescence after addition of GEF, versus DMSO vehicle control
Sequence of Dbs-mediated activation of RhoA (P61586 whole entry): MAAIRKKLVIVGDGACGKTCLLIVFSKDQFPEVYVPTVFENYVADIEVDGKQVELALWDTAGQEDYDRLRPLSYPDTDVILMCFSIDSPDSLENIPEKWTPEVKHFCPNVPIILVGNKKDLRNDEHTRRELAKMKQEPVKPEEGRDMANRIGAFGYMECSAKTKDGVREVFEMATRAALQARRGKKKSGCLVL

Rac1 = Rac1 (Homo sapiens, UniProt P63000); assay: complementary radiolabeled nucleotide exchange assay on Rac1
H-Ras = H-Ras (Homo sapiens, UniProt P01112); assay: complementary radiolabeled nucleotide exchange assay on H-Ras
Sequence of H-Ras (P01112 whole entry, species assumed): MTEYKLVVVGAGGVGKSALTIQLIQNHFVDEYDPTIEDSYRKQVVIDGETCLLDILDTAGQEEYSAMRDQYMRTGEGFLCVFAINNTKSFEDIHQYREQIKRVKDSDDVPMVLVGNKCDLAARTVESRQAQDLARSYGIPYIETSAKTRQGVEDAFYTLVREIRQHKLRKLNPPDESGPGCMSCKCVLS

RhoA = RhoA (Homo sapiens, UniProt P61586); assay: complementary radiolabeled nucleotide exchange assay on RhoA
Sequence of RhoA (P61586 whole entry, species assumed): as the sequence (P61586 whole entry) above

Cdc42 = Cdc42 (Homo sapiens, UniProt P60953); assay: complementary radiolabeled nucleotide exchange assay on Cdc42
Sequence of Cdc42 (P60953 whole entry, species assumed): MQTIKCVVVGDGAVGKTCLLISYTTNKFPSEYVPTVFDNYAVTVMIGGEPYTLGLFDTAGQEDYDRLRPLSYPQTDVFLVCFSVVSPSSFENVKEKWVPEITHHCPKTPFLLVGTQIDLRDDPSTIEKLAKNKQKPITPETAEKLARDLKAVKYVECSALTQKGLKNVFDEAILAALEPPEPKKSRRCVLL

[2] = test system: Tiam1-mediated activation of Rac1; assay: fluorescence based guanine nucleotide exchange assay, Tiam1-mediated activation of Rac1
Rap2A = biological target: T1, Rap2A (Homo sapiens, UniProt P10114); assay: intrinsic guanine nucleotide exchange of Gpp(NH)p-preloaded Rap2A with mant-GTP (FRET); settings: 1 μM RGS14 RBD protein, 100 nM Rap2A, 1 μM mant-GTP, 37° C., compared to Rap2A alone, p<0.05
T1 sequence (P10114 1-183): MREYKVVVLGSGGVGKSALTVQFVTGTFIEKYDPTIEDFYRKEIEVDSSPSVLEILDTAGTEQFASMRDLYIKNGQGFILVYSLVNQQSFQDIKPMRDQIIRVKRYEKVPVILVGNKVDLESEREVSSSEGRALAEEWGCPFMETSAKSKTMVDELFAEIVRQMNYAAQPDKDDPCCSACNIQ
Method: The intrinsic guanine nucleotide exchange rate of Gpp(NH)p-preloaded Rap2A (100 nM) was monitored with mant-GTP in the absence (solid) or presence (dashed) of the RBD tandem repeat (aa 300-447) from the putative Rap2A effector rat RGS14 (1 μM). In this example, 1 mL cuvettes were loaded with 1 μM mant-GTP (in 50 mM Tris pH 7.5, 5 mM MgCl2, 1 mM EDTA at 37° C.) and allowed to equilibrate prior to the addition of 100 nM Rap2A (preloaded with Gpp(NH)p) in the presence or absence of 1 μM of the RGS14 RBD protein. The dissociation of Gpp(NH)p was then measured by excitation of the tryptophan residue. The FRET-mediated excitation of bound mant-GTP was also measured. Binding of the RGS14 RBD repeat region to activated Rap2A prevents the loss of guanine nucleotide from the G-protein, thereby effectively acting as a guanine nucleotide dissociation inhibitor (GDI). Further, the incubation of Rap2A with the RGS14 tandem RBD repeat region slowed the rate of spontaneous nucleotide exchange by about 30% (p<0.05) when compared to that of Rap2A alone. Curves were fit as single exponential functions using GraphPad Prism™ (GraphPad Software, Inc.). […]

Nc1nc2c(ncn2[C@@H]2O[C@H](COP(=O)(O)OP(=O)(O)O)[C@@H](O)[C@H]2O)c(=O)[nH]1 [GDP]
effect on Dbs-mediated RhoA activation / guanine nucleotide exchange [1]: inhibit guanine nucleotide exchange

O=C(O)C=Cc1ccc[c]([SbH]([O-])([OH])[OH])c1 [NSC#13778, 3-(3-(dihydroxy(oxido)stibino)phenyl)acrylic acid]
activity in complementary radiolabeled assay (Rac1) (Rac1): confirmed
enhancement of nucleotide exchange on H-Ras (H-Ras): does not enhance nucleotide exchange
enhancement of nucleotide exchange on RhoA (RhoA): does not enhance nucleotide exchange
enhancement of nucleotide exchange on Cdc42 (Cdc42): does not enhance nucleotide exchange
effect on GEF-mediated nucleotide exchange on Rac1 ([2]; NCI Diversity Set screen, 96-well kinetic format, secondary studies in 1 mL total volume): accelerated kinetics; also recorded: enhancing Tiam1-mediated Rac1 activation in a dose-dependent manner; also recorded: accelerates GEF-mediated nucleotide exchange on Rac1 in a dose-dependent manner
EC50 ([2]; acceleration of GEF-mediated nucleotide exchange on Rac1): ~4 µM

B1: RGS14 tandem RBD repeat region: RBD tandem repeat (aa 300-447) from the putative Rap2A effector rat RGS14 (protein, UniProt O08773 300-447, looked up, fragment)
chain: KYCCVYLPDGTASLALARPGLTIRDMLAGICEKRGLSLPDIKVYLVGKEQKALVLDQDCTVLADQEVRLENRITFQLELVGLERVVRISAKPTKRLQEALQPILAKHGLSLDQVVLHRPGEKQLVDLENLVSSVASQTLVLDTLPDAK
slowing of the rate of spontaneous nucleotide exchange of Rap2A (Rap2A): about 30%
